Experimental data published in patent US5789431A, “Naphthoquinone antitumor compound and method” (The University of North Carolina at Chapel Hill, priority 1996, dated 1998).
Read-outs that look alike come from different tables or passages of the source.

Key:
SF-268 = assay: in vitro CNS cancer cell growth inhibition (NCI screen)
LXFL 529 = assay: in vitro non-small cell lung cancer cell growth inhibition (NCI screen)
OVCAR-3 = assay: in vitro ovarian cancer cell growth inhibition (NCI screen)
MOLT-4 = assay: in vitro leukemia cell growth inhibition (NCI screen)
HCT-116 = assay: in vitro colon cancer cell growth inhibition (NCI screen)
CCRF-CEM = assay: in vitro leukemia cell growth inhibition (NCI screen)
UACC-62 = assay: in vitro melanoma cell growth inhibition (NCI screen)
human tumor cell lines = format: cell-based; conditions: for GI50: Homo sapiens
SK-MEL-5 = assay: in vitro melanoma cell growth inhibition (NCI screen)
NCI-H23 = assay: in vitro non-small cell lung cancer cell growth inhibition (NCI screen)
SR = assay: in vitro leukemia cell growth inhibition (NCI screen)
MALME-3M = assay: in vitro melanoma cell growth inhibition (NCI screen)
NCI-H460 = assay: in vitro non-small cell lung cancer cell growth inhibition (NCI screen)
RXF-393 = assay: in vitro renal cancer cell growth inhibition (NCI screen)
786-0 = assay: as above
NCI-H522 = assay: in vitro non-small cell lung cancer cell growth inhibition (NCI screen)
HT 29 = assay: in vitro colon cancer cell growth inhibition (NCI screen)
M19-MEL = assay: in vitro melanoma cell growth inhibition (NCI screen)
K-562 = assay: in vitro leukemia cell growth inhibition (NCI screen)
HCT-15 = assay: in vitro colon cancer cell growth inhibition (NCI screen)
LOX1MVI = assay: in vitro melanoma cell growth inhibition (NCI screen)
U 251 = assay: in vitro CNS cancer cell growth inhibition (NCI screen)
HL-60(TB) = assay: in vitro leukemia cell growth inhibition (NCI screen)
SF-539 = assay: in vitro CNS cancer cell growth inhibition (NCI screen)
SK-OV-3 = assay: in vitro ovarian cancer cell growth inhibition (NCI screen)
M14 = assay: in vitro melanoma cell growth inhibition (NCI screen)
KM 12 = assay: in vitro colon cancer cell growth inhibition (NCI screen)
DLD-1 = assay: as above
ACHN = assay: in vitro renal cancer cell growth inhibition (NCI screen)
XF-498 = assay: in vitro CNS cancer cell growth inhibition (NCI screen)
COLO-205 = assay: in vitro colon cancer cell growth inhibition (NCI screen)
UO-31 = assay: in vitro renal cancer cell growth inhibition (NCI screen)
SK-MEL-28 = assay: in vitro melanoma cell growth inhibition (NCI screen)
UACC-257 = assay: as above
SK-MEL-2 = assay: as above
SNB-75 = assay: in vitro CNS cancer cell growth inhibition (NCI screen)
TK-10 = assay: in vitro renal cancer cell growth inhibition (NCI screen)
OVCAR-4 = assay: in vitro ovarian cancer cell growth inhibition (NCI screen); conditions: OVACR-4
RPMI-8226 = assay: in vitro leukemia cell growth inhibition (NCI screen)
MCF-7 = assay: in vitro breast cancer cell growth inhibition (NCI screen)
MDA-N = assay: as above
OVCAR-8 = assay: in vitro ovarian cancer cell growth inhibition (NCI screen)
SW 620 = assay: in vitro colon cancer cell growth inhibition (NCI screen)
PC-3 = assay: in vitro prostate cancer cell growth inhibition (NCI screen)
NCI-H266 = assay: in vitro non-small cell lung cancer cell growth inhibition (NCI screen)
T-47D = assay: in vitro breast cancer cell growth inhibition (NCI screen)
HOP-92 = assay: in vitro non-small cell lung cancer cell growth inhibition (NCI screen)
IGROV1 = assay: in vitro ovarian cancer cell growth inhibition (NCI screen)
[1] = non-small cell lung, CNS, melanoma, colon, leukemia, small cell lung, and renal cancer cell lines, read-out: logGI50 values (range over cell lines) (converted)
[2] = cancer cell panel, general / most cell lines, read-out: logGI50 values in the cancer cell line panel (converted)

Row | Structure (SMILES) | cytotoxicity log GI50 (SF-268) | cytotoxicity log GI50 (LXFL 529) | cytotoxicity log GI50 (OVCAR-3) | cytotoxicity log GI50 (MOLT-4) | cytotoxicity log GI50 (HCT-116) | cytotoxicity log GI50 (CCRF-CEM) | cytotoxicity log GI50 (UACC-62) | GI50 (human tumor cell lines; [1]) | cytotoxicity log GI50 (SR) | cytotoxicity log GI50 (MALME-3M) | cytotoxicity log GI50 (NCI-H460) | cytotoxicity log GI50 (RXF-393) | cytotoxicity log GI50 (786-0) | cytotoxicity log GI50 (NCI-H522) | cytotoxicity log GI50 (HT 29) | cytotoxicity log GI50 (K-562) | cytotoxicity log GI50 (HCT-15) | cytotoxicity log GI50 (U 251) | cytotoxicity log GI50 (HL-60(TB)) | cytotoxicity log GI50 (SF-539) | further results
1 | Cc1nc2c(n1Cc1ccc(F)cc1)C(=O)c1ccccc1C2=O [Compound 19] | -5.34 M | -4.87 M | -4.82 M | -5.27 M | -5.16 M | -4.98 M | -5.28 M | 1 to 10 µM | -5.37 M | -5.05 M | -5.39 M | -4.83 M | -4.88 M | -4.97 M | -5.03 M | -5.25 M | -5.37 M | -5.18 M | -5.26 M | -5.16 M | cytotoxicity log GI50 (SK-MEL-5): -4.99 M; cytotoxicity log GI50 (NCI-H23): -4.88 M; cytotoxicity log GI50 (M19-MEL): -5.44 M; cytotoxicity log GI50 (LOX1MVI): -5.14 M
2 | CCn1c(-c2ccc(F)cc2)nc2c1C(=O)c1ccccc1C2=O [Compound 26] |  |  | -4.47 M |  |  |  |  |  |  | -4.35 M |  | -4.27 M |  |  |  |  |  |  |  |  | cytotoxicity log GI50 (SK-OV-3): -4.68 M; GI50 (human tumor cell lines; [2]): ~10 µM; cytotoxicity log GI50 (M14): -4.15 M
3 | COc1ccc(Cn2c(C)nc3c2C(=O)c2ccccc2C3=O)cc1 [Compound 18] | -5.35 M | -5.37 M |  | -5.59 M | -5.43 M | -5.39 M | -5.34 M | 1 to 10 µM | -5.84 M |  | -5.62 M |  | -5.27 M | -5.22 M | -5.31 M | -5.49 M | -5.76 M | -5.20 M | -5.38 M | -5.42 M | cytotoxicity log GI50 (KM 12): -5.27 M; cytotoxicity log GI50 (DLD-1): -5.33 M; cytotoxicity log GI50 (LOX1MVI): -5.60 M
4 | CC(=O)NC1=C(NCc2ccc(Cl)cc2)C(=O)c2ccccc2C1=O [Compound 42] |  |  |  | -5.62 M | -5.51 M |  | -5.58 M |  |  |  |  | -5.37 M |  | -6.01 M |  | -5.61 M | -5.25 M |  | -5.86 M | -5.36 M | cytotoxicity log GI50 (ACHN): -5.74 M; cytotoxicity log GI50 (XF-498): -5.84 M; cytotoxicity log GI50 (SK-MEL-5): -5.26 M; cytotoxicity log GI50 (COLO-205): -5.27 M; cytotoxicity log GI50 (UO-31): -5.29 M; cytotoxicity log GI50 (SK-MEL-28): -5.26 M; cytotoxicity log GI50 (UACC-257): -5.21 M; cytotoxicity log GI50 (M19-MEL): -5.28 M; cytotoxicity log GI50 (SK-MEL-2): -5.25 M
5 | CCC(c1ccccc1F)c1nc2c(n1CC)C(=O)c1ccccc1C2=O (centres unmarked) [Compound 64] |  |  |  | -4.62 M |  |  |  |  |  |  |  | -5.53 M |  |  |  |  |  | -5.07 M |  |  | cytotoxicity log GI50 (SNB-75): -4.60 M; cytotoxicity log GI50 (TK-10): -5.49 M
6 | O=C(O)CCCc1nc2c(n1-c1ccccc1)C(=O)c1ccccc1C2=O [Compound 58] | -4.42 M |  | -4.47 M |  | -4.31 M | -4.39 M | -4.48 M |  |  | -4.67 M |  |  |  | -4.85 M |  |  |  |  | -4.43 M |  | cytotoxicity log GI50 (KM 12): -4.50 M; cytotoxicity log GI50 (OVCAR-4): -4.62 M; cytotoxicity log GI50 (SNB-75): -4.36 M; cytotoxicity log GI50 (RPMI-8226): -4.39 M; cytotoxicity log GI50 (M14): -4.72 M; cytotoxicity log GI50 (UACC-257): -4.48 M; cytotoxicity log GI50 (MCF-7): -4.49 M; cytotoxicity log GI50 (MDA-N): -4.36 M
7 | Cc1ccc(Cn2c(C)nc3c2C(=O)c2ccccc2C3=O)cc1 [Compound 17] | -5.46 M | -5.76 M |  | -6.19 M | -6.12 M | -5.70 M | -5.95 M | 1 to 10 µM | -6.48 M |  | -6.41 M |  | -5.66 M | -5.50 M | -5.90 M | -6.08 M | -6.21 M | -5.73 M | -5.72 M | -5.88 M | cytotoxicity against tumor cells (in words) (human tumor cell lines; cancer cell line panel): highly active against many of the cancer cell types tested; cytotoxicity log GI50 (OVCAR-8): -5.52 M; cytotoxicity log GI50 (SW 620): -5.48 M; cytotoxicity log GI50 (DLD-1): -5.91 M; cytotoxicity log GI50 (LOX1MVI): -6.22 M
8 | O=C(NC1=C(Cl)C(=O)c2ccccc2C1=O)c1ccc(F)cc1 [Compound 2f] |  |  |  | -5.65 M | -6.34 M | -6.10 M | -6.55 M |  |  | -5.82 M |  | -5.90 M |  | -6.34 M |  | -6.04 M | -6.27 M | -5.73 M | -6.47 M |  | cytotoxicity log GI50 (ACHN): -6.03 M; cytotoxicity log GI50 (PC-3): -5.95 M; GI50 (human tumor cell lines; [2]): ~1 µM; cytotoxicity log GI50 (NCI-H266): -5.96 M; cytotoxicity log GI50 (SW 620): -6.11 M; cytotoxicity log GI50 (T-47D): -5.72 M; cytotoxicity log GI50 (UACC-257): -5.71 M; cytotoxicity log GI50 (HOP-92): -5.79 M; cytotoxicity log GI50 (IGROV1): -5.77 M
